# Experimental data taken from paper PMC6669558, “Bioactive Compounds Isolated from Marine Bacterium Vibrio neocaledonicus and Their Enzyme Inhibitory Activities” (Marine Drugs, 2019).
# Values joined by “and” are separate entries in the source; they are usually repeats but may differ in a detail not shown here. Identical values can stand only once. Marks after values point to notes of the source that are not given here.
# Experiments:
# [1] = molecular target: T1, xanthine oxidase from bovine milk (Bos taurus, UniProt P80457); experiment: Xanthine oxidase inhibition assay; type: biochemical
# T1 construct: purchased Sigma Aldrich (Shanghai, China); host or cells: bovine milk
# T1 sequence (P80457 whole entry): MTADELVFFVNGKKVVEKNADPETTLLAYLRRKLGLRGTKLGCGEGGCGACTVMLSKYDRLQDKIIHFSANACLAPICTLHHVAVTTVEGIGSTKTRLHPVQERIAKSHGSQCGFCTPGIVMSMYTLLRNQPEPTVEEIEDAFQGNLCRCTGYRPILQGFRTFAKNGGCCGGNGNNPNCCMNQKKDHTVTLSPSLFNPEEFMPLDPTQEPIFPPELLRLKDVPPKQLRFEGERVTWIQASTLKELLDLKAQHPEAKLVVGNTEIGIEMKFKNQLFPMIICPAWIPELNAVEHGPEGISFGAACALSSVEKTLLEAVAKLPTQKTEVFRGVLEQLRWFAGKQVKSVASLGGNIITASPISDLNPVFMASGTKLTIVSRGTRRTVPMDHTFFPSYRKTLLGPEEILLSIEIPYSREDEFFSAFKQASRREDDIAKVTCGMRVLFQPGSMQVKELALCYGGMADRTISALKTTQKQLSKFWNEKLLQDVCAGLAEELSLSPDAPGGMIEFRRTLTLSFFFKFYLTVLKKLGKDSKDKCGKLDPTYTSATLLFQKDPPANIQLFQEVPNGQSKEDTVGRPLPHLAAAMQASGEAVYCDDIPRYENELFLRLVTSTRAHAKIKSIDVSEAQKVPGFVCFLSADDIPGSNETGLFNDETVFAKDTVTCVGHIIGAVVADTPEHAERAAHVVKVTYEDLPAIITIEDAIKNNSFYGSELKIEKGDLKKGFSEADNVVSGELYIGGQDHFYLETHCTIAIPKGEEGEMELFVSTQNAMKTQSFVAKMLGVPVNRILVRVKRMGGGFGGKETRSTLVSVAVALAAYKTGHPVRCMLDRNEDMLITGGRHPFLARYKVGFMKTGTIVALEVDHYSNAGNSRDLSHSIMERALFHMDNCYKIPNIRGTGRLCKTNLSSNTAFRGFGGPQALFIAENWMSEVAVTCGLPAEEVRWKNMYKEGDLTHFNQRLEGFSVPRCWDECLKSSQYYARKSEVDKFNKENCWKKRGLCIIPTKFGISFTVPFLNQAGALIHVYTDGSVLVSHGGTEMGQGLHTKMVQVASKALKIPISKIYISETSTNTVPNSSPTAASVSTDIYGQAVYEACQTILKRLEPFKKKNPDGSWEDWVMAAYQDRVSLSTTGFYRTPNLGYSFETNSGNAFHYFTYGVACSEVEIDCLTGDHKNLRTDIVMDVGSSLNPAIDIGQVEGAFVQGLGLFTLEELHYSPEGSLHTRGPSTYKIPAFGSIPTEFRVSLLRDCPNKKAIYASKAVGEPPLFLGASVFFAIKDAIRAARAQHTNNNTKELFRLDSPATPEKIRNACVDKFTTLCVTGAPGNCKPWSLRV
# Text: (§1) Acetylcholinesterase from Electrophorus electricus, alphaglucosidase from Saccharomyces cerevisiae, and xanthine oxidase from bovine milk were obtained from Sigma Aldrich (Shanghai, China). The other reagents used in the bioassays were purchased either from Solarbio or Sigma Aldrich. Analytical reagent grade organic solvents for extraction were purchased from XL Xilong Scientific Chemical. Silica gel plates (Silica gel 60 F254 0.2 mm layer thickness) were purchased from Merck (KGaA, Darmstadt, Germany). A spectrometer (Thermo Scientific Multiskan GO, Vantaa, Finland) was used for all measurements of AChE, AG and XO inhibitory activities. The venom was extracted and collected manually from the adult specimens of B. asper snakes from Colombia (South America) that were held captive in the Serpentarium at University of Antioquia. The venom was centrifuged, and the supernatant was lyophilized and frozen at −70 °C until its use.
# The assay was based on the developed method of Valentao [56] and modified for application in microplates by Lopez-Cruz. All test samples were dissolved in a 50 mM phosphate buffer to simulate the environment in which the reaction occurs in the body. […] The control contained all components except the sample. The inhibitory rate was calculated as the formula: %I = [1 − (ODs − OD sample sb)/ODn-ODnb] × 100%; where: ODn is the absorbance value of the sample system in which sample is substituted by PBS, ODnb is the absorbance value of ODn in which no XO was added, ODsb is the absorbance of ODs in which no XO was added.
# [2] = molecular target: T2, alphaglucosidase from Saccharomyces cerevisiae (Saccharomyces cerevisiae, UniProt P53341); experiment: Alphaglucosidase inhibition assay (pNPG); type: biochemical; settings: for inhibitory activity for the enzyme AG (in words): at any of the tested doses (3.125-50 µg/mL)
# T2 construct: purchased Sigma Aldrich (Shanghai, China)
# T2 sequence (P53341 whole entry): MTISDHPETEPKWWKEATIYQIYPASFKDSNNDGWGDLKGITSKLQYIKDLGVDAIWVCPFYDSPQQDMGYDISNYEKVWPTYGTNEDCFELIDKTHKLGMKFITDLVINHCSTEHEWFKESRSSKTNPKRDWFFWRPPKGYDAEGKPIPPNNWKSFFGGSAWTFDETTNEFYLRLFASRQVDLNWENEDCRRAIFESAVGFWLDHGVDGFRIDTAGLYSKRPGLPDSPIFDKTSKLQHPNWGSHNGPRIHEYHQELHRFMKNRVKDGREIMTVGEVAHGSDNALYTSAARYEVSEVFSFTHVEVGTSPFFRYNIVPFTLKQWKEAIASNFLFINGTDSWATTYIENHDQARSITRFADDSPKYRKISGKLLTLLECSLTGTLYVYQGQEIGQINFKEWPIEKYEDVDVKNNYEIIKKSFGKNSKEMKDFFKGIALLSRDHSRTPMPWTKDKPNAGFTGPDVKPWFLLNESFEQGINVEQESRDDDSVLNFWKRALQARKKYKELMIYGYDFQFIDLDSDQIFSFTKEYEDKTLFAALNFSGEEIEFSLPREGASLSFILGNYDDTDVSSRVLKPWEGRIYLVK
# Text: as §1
# The AG inhibition activity was evaluated by measuring the release of p-nitrophenol from p nitrophenyl-α-D-glucopyranoside (pNPG) following the protocol proposed by Pistia-Brueggemann, with modifications. […] The control (C-) contained all the reagents but the sample was substituted by PBS. […] The inhibitory rate was calculated as the formula: %I = [1 − (ODs − OD sample sb)/ODn-ODnb] × 100%; where: ODn is the absorbance value of the sample system in which sample is substituted by PBS, ODnb is the absorbance value of ODn in which no AG was added, ODsb is the absorbance of ODs in which no AG was added.
# [3] = molecular target: T3, Acetylcholinesterase from Electrophorus electricus (Electrophorus electricus, UniProt O42275); experiment: Acetylcholinesterase inhibition assay (Ellman, ATCI substrate); type: biochemical
# T3 construct: purchased Sigma Aldrich (Shanghai, China)
# T3 sequence (O42275 24-633): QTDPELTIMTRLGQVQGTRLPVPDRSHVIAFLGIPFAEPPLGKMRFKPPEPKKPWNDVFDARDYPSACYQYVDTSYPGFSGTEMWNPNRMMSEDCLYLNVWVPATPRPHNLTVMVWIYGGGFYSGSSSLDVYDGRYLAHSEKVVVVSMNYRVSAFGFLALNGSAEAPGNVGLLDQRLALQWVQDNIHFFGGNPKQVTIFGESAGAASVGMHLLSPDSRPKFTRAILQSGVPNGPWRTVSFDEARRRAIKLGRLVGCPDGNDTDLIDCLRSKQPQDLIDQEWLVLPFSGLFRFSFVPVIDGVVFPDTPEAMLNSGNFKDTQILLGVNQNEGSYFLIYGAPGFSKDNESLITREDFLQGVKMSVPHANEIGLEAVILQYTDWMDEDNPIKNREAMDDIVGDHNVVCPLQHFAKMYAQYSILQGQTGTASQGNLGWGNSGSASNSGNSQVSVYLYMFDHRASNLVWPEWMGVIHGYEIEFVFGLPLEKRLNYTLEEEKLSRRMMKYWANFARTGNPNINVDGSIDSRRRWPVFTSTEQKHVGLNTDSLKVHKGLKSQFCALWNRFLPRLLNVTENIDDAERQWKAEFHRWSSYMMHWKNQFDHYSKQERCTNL
# Text: as §1
# AChE inhibition was determined according to the method of Ellman with ATCI as substrate. […] The control contained all components except the tested extract. The inhibitory rate was calculated as the formula: %I = [1 − (ODs−OD sample sb)/ODn-ODnb] × 100%; where: ODn is the absorbance value of the sample system in which sample is substituted by PBS, ODnb is the absorbance value of ODn in which no AChE was added, ODsb is the absorbance of ODs in which no AchE was added.
# B. asper venom [4] = experiment: Inhibition of indirect hemolytic activity (agarose-erythrocyte-egg yolk gels); type: biochemical, Bothrops asper; settings: at tested doses
# Method: The second method to evaluate the inhibitory effect of indole on PLA2, was determining the inhibition of the indirect hemolytic activity. This was evaluated in agarose-erythrocyte-egg yolk gels according to Gutierrez. It used a minimum indirect hemolytic dose (MIHD) of B. asper venom of 2.2 μg, defined as the amount of venom that induced a 20 mm diameter hemolytic halo. Venom and different doses of indole were preincubated for 30 min at 37 °C and the inhibitory potential was measured after 20 h of plate incubation at 37 °C. This experiment was done in triplicate.
# B. asper venom [5] = experiment: Inhibition of proteolytic activity of venom on azocasein; type: biochemical, Bothrops asper; settings: 3 µg venom per well
# Text: as §1
# The proteolytic activity was measured on azocasein (Sigma Aldrich, St. Lous, MO, USA) according to Wang with some modifications. […] The supernatant (100 μL) was mixed with an equal volume of 0.5 M NaOH, and the absorbance was measured at 450 nm. Results are shown as percentage of activity (absorbance at 450 nm). […]
# B. asper venom [6] = experiment: Inhibition of coagulant activity of venom (plasma clotting time); type: biochemical, Bothrops asper
# Method: The method described by Theakston and Reid was followed, with small modifications. Briefly, 1.0 µg of B. asper dissolved in 25 µL PBS were mixed with 75 µL of different concentrations of indole, and pre-incubated for 30 min at 37 °C. After, 100 µL of mixtures were added to 0.2 mL of plasma, and the time required for plasma coagulation was determined.
# [7] = test system: Phospholipase A2 (Cdcum6); experiment: Inhibition of PLA2 activity with 4N3OBA substrate; type: biochemical, Crotalus durissus cumanensis
# Method: (§2) Batx-I was isolated from Bothrops atrox according to the protocol of Patiño. Purification was done by ion-exchange chromatography (CM Sephadex C25) and the toxin purity was tested by RP-HPLC and SDS PAGE. PLA2 was isolated from Crotalus durissus cumanensis according to the protocol of Pereañez. PLA2 was purified by RP-HPLC on C-18 column eluted at 1.0 mL/min with a gradient from 0% to 100% acetonitrile in 0.1% trifluoroacetic acid (v/v). Absorbance was monitored at 215 nm. Batx-I and Cdcum6 were lyophilized and stored at −20 °C until their use.
# The inhibitory effect of indole on the PLA2 of snake venom was assessed by two methods; the first of them, using monodispersed substrate 4N3OBA (manufactured by BIOMOL, Hamburg Germany) according to the method described by Holzer and Mackessy and adapted for a 96-well ELISA plate. […] The inhibitory effect of indole on PLA2 activity was determined through pre-incubation of the enzyme with each concentration of the compound for 30 min at 37 °C. After the incubation period, the sample was added to the assay and the reaction was monitored at 425 nm for 40 min at 37 °C. The quantity of chromophore released (4-nitro-3-hydroxy benzoic acid) was proportional to the enzymatic activity. […]
# [8] = test system: Metalloproteinase (Batx-I); experiment: Inhibition of proteolytic activity of isolated metalloproteinase on azocasein; type: biochemical, Bothrops atrox; settings: 3 µg toxin per well
# Method: as §2
# The proteolytic activity was measured on azocasein (Sigma Aldrich, St. Lous, MO, USA) according to Wang with some modifications. Briefly, 3 µg of B. asper venom or Batx-I were dissolved in 5 μL of 25 mM Tris (0.15 M NaCl, 5 mM CaCl2), pH 7.4, and were mixed with different doses of indole in order to obtain 1:20, 1:10 and 1:5 w/w ratios, respectively. Mixes were pre-incubated for 30 min at 37 °C. Later, these solutions were incubated with 10 mg/mL of azocasein diluted in the same buffer. After an incubation of 90 min at 37 °C, the reaction was stopped by the addition of 200 μL of trichloroacetic acid. The samples were then centrifuged at 3000 rpm for 5 min. The supernatant (100 μL) was mixed with an equal volume of 0.5 M NaOH, and the absorbance was measured at 450 nm. Results are shown as percentage of activity (absorbance at 450 nm). […]
# [9] = dose 50 µg/mL, listed as indole
Compound,IC50 [1],XOI% ([1]; dose 3.125 µg/mL),XOI% ([1]; dose 6.25 µg/mL),XOI% ([1]; dose 25 µg/mL),XOI% ([1]; dose 50 µg/mL),inhibitory activity for the enzyme AG (in words) [2],AGI% ([2]; dose 3.125 µg/mL),AGI% ([2]; dose 6.25 µg/mL),AGI% ([2]; dose 25 µg/mL),AGI% ([2]; dose 50 µg/mL),AChEI% ([3]; dose 3.125 µg/mL),AChEI% ([3]; dose 6.25 µg/mL),AChEI% ([3]; dose 25 µg/mL),AChEI% ([3]; dose 50 µg/mL),IC50 [3],other results
O=Cc1c[nH]c2ccccc12 [1H-indole-3-carboxaldehyde],13.4 ± 0.39 µM,61.14% and 61.14 ± 0.14 %,67.69% and 67.69 ± 0.34 %,86.49% and 86.49 ± 0.89 %,100% and 100 *** %,no inhibitory activity,0%,0%,0%,0%,0%,0%,0%,0%,,
O=Cc1ccc(O)cc1 [4-hydroxybenzaldehyde],506 ± 16 µM,17.39 ± 0.49%,25.27 ± 0.19%,31.67 ± 0.52%,50.75% and 50.75 ± 0.50%,no inhibitory activity,0%,0%,0%,0%,0%,4.21 ± 0.01%,14.26 ± 0.011%,25.7% and 25.7 ± 0.56%,6.89 ± 0.118 mM,
"c1ccc2[nH]ccc2c1 [Indole, indole]",843 ± 16.7 µM,15.01 ± 0.31%,17.77 ± 0.52%,25.17 ± 0.65%,44.30 ± 1.14%,,51.43 ± 1.06 %,81.49 ± 1.17 %,94.4 ± 1.01 %,100 *** %,0%,9.42 ± 0.07%,37.54 ± 1.26%,51.3 ± 1.67 %,0.335 ± 0.0131 mM,"inhibition of the indirect hemolytic activity of the complete venom (in words) (B. asper venom [4]): did not show inhibition; XOI% [1, 9]: 44.3%; AGI% ([2]; dose 3.125 µg/mL, listed as indole): 51.43%; AGI% ([2]; dose 6.25 µg/mL, listed as indole): 81.49%; AGI% ([2]; dose 25 µg/mL, listed as indole): 94.4%; IC50 ([2]; read-out: AG (IC50 µM)): 18.7 ± 1.1 µM; proteolytic activity inhibition of B. asper venom (in words) (B. asper venom [5]; venom:compound ratio 1:10): weak inhibition without significance; proteolytic activity inhibition of B. asper venom (B. asper venom [5]; venom:compound ratio 1:20 w/w): 77.9% ± 5.5; coagulant activity of the compound by itself (in words) (B. asper venom [6]; compound alone, after half an hour of incubation): did not generate coagulant activity; inhibition of the coagulating effect in vitro (in words) (B. asper venom [6]; induced by 1.0 µg of venom): significant in vitro inhibition; maximum delay time for clotting onset (clotting time) (B. asper venom [6]; venom:compound ratio 1:20 w/w, 1.0 µg venom, venom alone 21.6 ± 0.8 s): 99 ± 4.0 s; inhibition of PLA2 activity (given as proteolytic activity inhibition) ([7]; toxin:compound ratio 1:10): 10.0%; inhibition of PLA2 activity (given as proteolytic activity inhibition) ([7]; toxin:compound ratio 1:20): 15.20%; AChEI% [3, 9]: 51.3%; inhibition of proteolytic activity of metalloprotease ([8]; toxin:compound ratio 1:5, not significant): 4.31 ± 1.9; inhibition of proteolytic activity of metalloprotease ([8]; toxin:compound ratio 1:10): 13.54 ± 2.5"
